pIC50: −log10 of the molar value. Where two headings read alike, the source gives them in different places.
What was measured:
LoVo Colon cell line = test: Cytotoxicity assay using LoVo colon cell line, SRB; assay type: cell-based; details: Cellular activity in LoVo cell, 4 days incubation, SRB, read-out: Inhibition of LoVo
Procedure, shortened: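 Growth inhibition read by sulforhodamine B after 4-day compound exposure at 37 °C. Colon LoVo cells plated at 4000 per well in RPMI/10% FBS a day earlier; doses ranged 5 pM-20 μM or 170 pg/ml-10 μg/ml. IC50 is the concentration halving proliferation versus untreated wells.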

[1] = test system: 80S14 (p21-deficient) cells; test: Cytotoxicity assay using isogenic cell lines: IC50 in 80S14 (p21-deficient) cells, SRB; assay type: cell-based, human; details: 80S14 (p21-deficient) cells, 5 days, SRB, class symbols, read-out: IC50 for 80S14
Procedure, shortened: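 IC50 is the concentration halving proliferation relative to untreated controls, read from SRB absorbance (560 nm) after TCA fixation. Test agent dilutions (5 pM–50 μM or 170 pg/ml–10 μg/ml) were left on p21-deficient 80S14 cells (12,000/well, pre-incubated overnight) for 5 days at 37 °C.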

Row | Compound | pIC50 (LoVo Colon cell line; Homo sapiens, 96 h) | pIC50 ([1]; Homo sapiens, 120 h) | pIC50 (LoVo Colon cell line) | pIC50 [1]
1 | O=Cc1ccc(-c2cccc(-c3ccnc4c(C(=O)c5cccs5)cnn34)c2)cc1 [Example 458, 3′-[3-(Thien-2-ylcarbonyl)pyrazolo[1,5-a]pyrimidin-7-yl]-1,1′-biphenyl-4-carbaldehyde] | 6.00 to 7.00 | 5.00 to 6.00 |  | 
2 | O=C(c1cccs1)c1cnn2c(-c3cccc(-c4ccc(CNCCN5CCOCC5)cc4)c3)ccnc12 [Example 461, [7-(4′-{[(2-Morpholin-4-ylethyl)amino]methyl}-1,1′-biphenyl-3-yl)pyrazolo[1,5-a]pyrimidin-3-yl](thien-2-yl)methanone] | 6.00 to 7.00 | 5.00 to 6.00 |  | 
3 | CCN(CC)Cc1ccc(-c2cccc(-c3ccnc4c(C(=O)c5cccs5)cnn34)c2)cc1 [Example 462, (7-{4′-[(Diethylamino)methyl]-1,1′-biphenyl-3-yl}pyrazolo[1,5-a]pyrimidin-3-yl)(thien-2-yl)methanone] | 6.00 to 7.00 | 5.00 to 6.00 |  | 
4 | CN(C)Cc1ccc(-c2cccc(-c3ccnc4c(C(=O)c5cccs5)cnn34)c2)cc1 [Example 463, (7-{4′-[(Dimethylamino)methyl]-1,1′-biphenyl-3-yl}pyrazolo[1,5-a]pyrimidin-3-yl)(thien-2-yl)methanone] | > 7.00 | > 6.00 |  | 
5 | CC(C)CC(=O)Nc1cccc(-c2ccnc3c(-c4cccc(N(C)C)c4)cnn23)c1 [Example 465, N-(3-{3-[3-(Dimethylamino)phenyl]pyrazolo[1,5-a]pyrimidin-7-yl}phenyl)-3-methylbutanamide] | > 7.00 | > 6.00 |  | 
6 | CC(C)CC(=O)Nc1cccc(-c2ccnc3c(-c4ccc5[nH]ccc5c4)cnn23)c1 [Example 466, N-{3-[3-(1H-Indol-5-yl)pyrazolo[1,5-a]pyrimidin-7-yl]phenyl}-3-methylbutanamide] | > 7.00 | 5.00 to 6.00 |  | 
7 | COc1cc(-c2cnn3c(-c4cccc(NC(=O)CC(C)C)c4)ccnc23)cc(OC)c1OC [Example 467, 3-Methyl-N-{3-[3-(3,4,5-trimethoxyphenyl)pyrazolo[1,5-a]pyrimidin-7-yl]phenyl}butanamide] | > 7.00 | > 6.00 |  | 
8 | CC(C)CC(=O)Nc1cccc(-c2ccnc3c(-c4cccc5cccnc45)cnn23)c1 [Example 468, 3-Methyl-N-[3-(3-quinolin-8-ylpyrazolo[1,5-a]pyrimidin-7-yl)phenyl]butanamide] | 6.00 to 7.00 | 5.00 to 6.00 |  | 
9 | CC(C)CC(=O)Nc1cccc(-c2ccnc3c(-c4ccc(CO)cc4)cnn23)c1 [Example 469, N-(3-{3-[4-(Hydroxymethyl)phenyl]pyrazolo[1,5-a]pyrimidin-7-yl}phenyl)-3-methylbutanamide] | 4.70 to 6.00 | 4.30 to 5.00 |  | 
10 | COc1ccc(-c2cnn3c(-c4cccc(NC(=O)CC(C)C)c4)ccnc23)cc1 [Example 470, N-{3-[3-(4-Methoxyphenyl)pyrazolo[1,5-a]pyrimidin-7-yl]phenyl}-3-methylbutanamide] | 4.70 to 6.00 | 4.30 to 5.00 |  | 
11 | CC(C)CC(=O)Nc1cccc(-c2ccnc3c(-c4cccc(Cl)c4)cnn23)c1 [Example 471, N-{3-[3-(3-Chlorophenyl)pyrazolo[1,5-a]pyrimidin-7-yl]phenyl}-3-methylbutanamide] | 4.70 to 6.00 | 4.30 to 5.00 |  | 
12 | CC(C)CC(=O)Nc1cccc(-c2ccnc3c(-c4ccc(Cl)cc4)cnn23)c1 [Example 472, N-{3-[3-(4-Chlorophenyl)pyrazolo[1,5-a]pyrimidin-7-yl]phenyl}-3-methylbutanamide] | 4.70 to 6.00 | 4.30 to 5.00 |  | 
13 | CC(C)CC(=O)Nc1cccc(-c2ccnc3c(-c4cccc(Cl)c4Cl)cnn23)c1 [Example 473, N-{3-[3-(2,3-Dichlorophenyl)pyrazolo[1,5-a]pyrimidin-7-yl]phenyl}-3-methylbutanamide] | 6.00 to 7.00 | 5.00 to 6.00 |  | 
14 | CC(C)CC(=O)Nc1cccc(-c2ccnc3c(-c4ccc(Cl)c(Cl)c4)cnn23)c1 [Example 474, N-{3-[3-(3,4-Dichlorophenyl)pyrazolo[1,5-a]pyrimidin-7-yl]phenyl}-3-methylbutanamide] | 4.70 to 6.00 | 4.30 to 5.00 |  | 
15 | CC(C)CC(=O)Nc1cccc(-c2ccnc3c(-c4cc(Cl)cc(Cl)c4)cnn23)c1 [Example 475, N-{3-[3-(3,5-Dichlorophenyl)pyrazolo[1,5-a]pyrimidin-7-yl]phenyl}-3-methylbutanamide] | 4.70 to 6.00 | 5.00 to 6.00 |  | 
16 | Cc1cc(C)cc(-c2cnn3c(-c4cccc(NC(=O)CC(C)C)c4)ccnc23)c1 [Example 476, N-{3-[3-(3,5-Dimethylphenyl)pyrazolo[1,5-a]pyrimidin-7-yl]phenyl}-3-methylbutanamide] | > 7.00 | > 6.00 |  | 
17 | CC(C)CC(=O)Nc1cccc(-c2ccnc3c(-c4cccc(C(F)(F)F)c4)cnn23)c1 [Example 477, 3-Methyl-N-(3-{3-[3-(trifluoromethyl)phenyl]pyrazolo[1,5-a]pyrimidin-7-yl}phenyl)butanamide] | 4.70 to 6.00 | 4.30 to 5.00 |  | 

Row | Compound | pIC50 (LoVo Colon cell line; Homo sapiens, 96 h) | pIC50 ([1]; Homo sapiens, 120 h) | pIC50 (LoVo Colon cell line) | pIC50 [1]
18 | COc1cccc(-c2cnn3c(-c4cccc(NC(=O)CC(C)C)c4)ccnc23)c1 [Example 478, N-{3-[3-(3-Methoxyphenyl)pyrazolo[1,5-a]pyrimidin-7-yl]phenyl}-3-methylbutanamide] | 4.70 to 6.00 | 4.30 to 5.00 |  | 
19 | CCOc1cccc(-c2cnn3c(-c4cccc(NC(=O)CC(C)C)c4)ccnc23)c1 [Example 479, N-{3-[3-(3-Ethoxyphenyl)pyrazolo[1,5-a]pyrimidin-7-yl]phenyl}-3-methylbutanamide] | 4.70 to 6.00 | 4.30 to 5.00 |  | 
20 | CC(C)CC(=O)Nc1cccc(-c2ccnc3c(-c4ccc(Oc5ccccc5)cc4)cnn23)c1 [Example 480, 3-Methyl-N-{3-[3-(4-phenoxyphenyl)pyrazolo[1,5-a]pyrimidin-7-yl]phenyl}butanamide] | 4.70 to 6.00 | 4.30 to 5.00 |  | 
21 | CC(C)CC(=O)Nc1cccc(-c2ccnc3c(-c4ccc5c(c4)OCO5)cnn23)c1 [Example 481, N-{3-[3-(1,3-Benzodioxol-5-yl)pyrazolo[1,5-a]pyrimidin-7-yl]phenyl}-3-methylbutanamide] | 6.00 to 7.00 | 5.00 to 6.00 |  | 
22 | CC(C)CC(=O)Nc1cccc(-c2ccnc3c(-c4cccc(C#N)c4)cnn23)c1 [Example 482, N-{3-[3-(3-Cyanophenyl)pyrazolo[1,5-a]pyrimidin-7-yl]phenyl}-3-methylbutanamide] | 4.70 to 6.00 | 4.30 to 5.00 |  | 
23 | CC(=O)c1cccc(-c2cnn3c(-c4cccc(NC(=O)CC(C)C)c4)ccnc23)c1 [Example 483, N-{3-[3-(3-Acetylphenyl)pyrazolo[1,5-a]pyrimidin-7-yl]phenyl}-3-methylbutanamide] | 4.70 to 6.00 | 4.30 to 5.00 |  | 
24 | COc1ccc(-c2cnn3c(-c4cccc(NC(=O)CC(C)C)c4)ccnc23)cc1C=O [Example 484, N-{3-[3-(3-Formyl-4-methoxyphenyl)pyrazolo[1,5-a]pyrimidin-7-yl]phenyl}-3-methylbutanamide] | 4.70 to 6.00 | 5.00 to 6.00 |  | 
25 | CC(C)CC(=O)Nc1cccc(-c2ccnc3c(-c4cccc(-c5ccccc5)c4)cnn23)c1 [Example 485, N-{3-[3-(1,1′-Biphenyl-3-yl)pyrazolo[1,5-a]pyrimidin-7-yl]phenyl}-3-methylbutanamide] | 4.70 to 6.00 | 4.30 to 5.00 |  | 
26 | CC(C)CC(=O)Nc1cccc(-c2ccnc3c(-c4ccc(-c5ccccc5)cc4)cnn23)c1 [Example 486, N-{3-[3-(1,1′-Biphenyl-4-yl)pyrazolo[1,5-a]pyrimidin-7-yl]phenyl}-3-methylbutanamide] | 4.70 to 6.00 | 4.30 to 5.00 |  | 
27 | CC(C)CC(=O)Nc1cccc(-c2ccnc3c(-c4cccc(C=O)c4)cnn23)c1 [Example 487, N-{3-[3-(3-Formylphenyl)pyrazolo[1,5-a]pyrimidin-7-yl]phenyl}-3-methylbutanamide] | 4.70 to 6.00 | 4.30 to 5.00 |  | 
28 | CC(C)CC(=O)Nc1cccc(-c2ccnc3c(-c4cccc(CN5CCOCC5)c4)cnn23)c1 [Example 488, 3-Methyl-N-(3-{3-[3-(morpholin-4-ylmethyl)phenyl]pyrazolo[1,5-a]pyrimidin-7-yl}phenyl)butanamide] | 4.70 to 6.00 | 4.30 to 5.00 |  | 
29 | CC(C)CC(=O)Nc1cccc(-c2ccnc3c(-c4cccc(CN5CCN(C)CC5)c4)cnn23)c1 [Example 489, 3-Methyl-N-[3-(3-{3-[(4-methylpiperazin-1-yl)methyl]phenyl}pyrazolo[1,5-a]pyrimidin-7-yl)phenyl]butanamide] | 4.70 to 6.00 | 5.00 to 6.00 |  | 
30 | Cc1cc(C)cc(-c2cnn3c(-c4cccc(C#N)c4)ccnc23)c1 [Example 490, 3-[3-(3,5-Dimethylphenyl)pyrazolo[1,5-a]pyrimidin-7-yl]benzonitrile] | 4.70 to 6.00 | 4.30 to 5.00 |  | 
31 | Cc1cc(C)cc(-c2cnn3c(-c4cccc(-c5nnn[nH]5)c4)ccnc23)c1 [Example 491, 3-(3,5-Dimethylphenyl)-7-[3-(1H-tetraazol-5-yl)phenyl]pyrazolo[1,5-a]pyrimidine] | 4.70 to 6.00 | 5.00 to 6.00 |  | 
32 | Cc1cc(C)cc(-c2cnn3c(-c4cccc(-c5nnn(CC6CCC6)n5)c4)ccnc23)c1 [Example 492, 7-{3-[2-(Cyclobutylmethyl)-2H-tetraazol-5-yl]phenyl}-3-(3,5-dimethylphenyl)pyrazolo[1,5-a]pyrimidine] | 6.00 to 7.00 | 5.00 to 6.00 |  | 
33 | Cc1cc(C)cc(-c2cnn3c(-c4cccc(-c5nnn(CCN6CCOCC6)n5)c4)ccnc23)c1 [Example 493, 3-(3,5-Dimethylphenyl)-7-{3-[2-(2-morpholin-4-ylethyl)72H-tetraazol-5-yl]phenyl}pyrazolo[1,5-a]pyrimidine] |  |  | 6.00 to 7.00 | 5.00 to 6.00
